# Reference: ChEMBL document CHEMBL4387701, “H2depda: An acyclic adjuvant potentiates meropenem activity in vitro against metallo-β-lactamase-producing enterobacterales” (Eur J Med Chem, 2019)
# Calls of active or inactive are those of the source. The rule behind the calls is not given here.
# Key:
# [1] = system: Klebsiella pneumoniae; assay: Effect on growth of Klebsiella pneumoniae isolate 13 after 24 hrs by broth microdilution method; assay type: organism-based
# [2] = system: Escherichia coli; assay: Inhibition of NDM1 in Escherichia coli isolate 9 assessed as potentiation of meropenem-induced antibacterial activity by measuring meropenem MIC after 24 hrs by broth microdilution assay
# [3] = system: Escherichia coli; assay: Effect on growth of Escherichia coli isolate 11 after 24 hrs by broth microdilution method; assay type: organism-based
# [4] = system: Klebsiella pneumoniae; assay: Effect on growth of Klebsiella pneumoniae isolate 12 after 24 hrs by broth microdilution method; assay type: organism-based
# [5] = system: Proteus mirabilis; assay: Effect on growth of Proteus mirabilis isolate 19 after 24 hrs by broth microdilution method; assay type: organism-based
# [6] = system: Klebsiella pneumoniae; assay: Inhibition of IMP4 in Klebsiella pneumoniae isolate 13 assessed as potentiation of meropenem-induced antibacterial activity by measuring meropenem MIC after 24 hrs by broth microdilution method (reference value: 320 ug/ml)
# [7] = system: Klebsiella pneumoniae; assay: Effect on growth of Klebsiella pneumoniae isolate 17 after 24 hrs by broth microdilution method; assay type: organism-based
# [8] = system: Citrobacter freundii; assay: Effect on growth of Citrobacter freundii isolate 7 after 24 hrs by broth microdilution assay; assay type: organism-based
# [9] = system: Escherichia coli; assay: Effect on growth of Escherichia coli isolate 2 after 24 hrs by broth microdilution assay; assay type: organism-based
# [10] = target: T1, Metallo-beta-lactamase NDM-4 (Escherichia coli) (UniProt H6WZS9); assay: Inhibition of Escherichia coli isolate 3 NDM4 assessed as potentiation of meropenem-induced antibacterial activity by measuring reduction in meropenem MIC after 24 hrs by broth microdilution method relative to meropenem alone
# T1 sequence (whole entry): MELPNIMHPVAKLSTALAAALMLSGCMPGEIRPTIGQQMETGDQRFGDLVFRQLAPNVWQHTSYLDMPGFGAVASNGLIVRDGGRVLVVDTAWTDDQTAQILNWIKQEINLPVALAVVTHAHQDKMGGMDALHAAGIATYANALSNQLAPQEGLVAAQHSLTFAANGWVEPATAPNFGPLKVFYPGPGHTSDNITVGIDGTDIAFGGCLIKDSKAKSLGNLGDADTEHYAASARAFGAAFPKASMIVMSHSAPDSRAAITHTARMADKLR
# [11] = target: T1, Metallo-beta-lactamase NDM-4 (Escherichia coli); assay: Inhibition of NDM4 in Escherichia coli ATCC 25922 assessed as potentiation of meropenem-induced antibacterial activity by measuring zone of inhibition by agar disk diffusion method
# [12] = target: T1, Metallo-beta-lactamase NDM-4 (Escherichia coli); assay: Inhibition of Escherichia coli NDM4 assessed as potentiation of meropenem-induced antibacterial activity by measuring reduction in bacterial growth at 64 ug/mL after 24 hrs by broth microdilution method relative to control
# [13] = system: Enterobacter cloacae; assay: Inhibition of NDM1 in Enterobacter cloacae isolate 5 assessed as potentiation of meropenem-induced antibacterial activity by measuring meropenem MIC after 24 hrs by broth microdilution assay (reference value: 640 ug/ml)
# [14] = system: Enterobacter cloacae; assay: Effect on growth of Enterobacter cloacae isolate 4 after 24 hrs by broth microdilution assay; assay type: organism-based
# [15] = system: Enterobacter cloacae; assay: Effect on growth of Enterobacter cloacae isolate 5 after 24 hrs by broth microdilution assay; assay type: organism-based
# [16] = system: Klebsiella pneumoniae; assay: Effect on growth of Klebsiella pneumoniae isolate 10 after 24 hrs by broth microdilution method; assay type: organism-based
# [17] = system: Escherichia coli; assay: Inhibition of NDM1 in Escherichia coli isolate 8 assessed as potentiation of meropenem-induced antibacterial activity by measuring meropenem MIC after 24 hrs by broth microdilution assay (reference value: 320 ug/ml)
# [18] = system: Klebsiella pneumoniae; assay: Inhibition of IMP4 in Klebsiella pneumoniae isolate 12 assessed as potentiation of meropenem-induced antibacterial activity by measuring meropenem MIC after 24 hrs by broth microdilution method (reference value: 16 ug/ml)
# [19] = target: T1, Metallo-beta-lactamase NDM-4 (Escherichia coli); assay: Inhibition of NDM4 in Escherichia coli isolate 3 assessed as potentiation of meropenem-induced bactericidal activity at 4 times MIC incubated for 24 hrs followed by replating on agar plates for 16 to 18 hrs and measured up to 24 hrs by time kill assay
# [20] = system: Enterobacter cloacae; assay: Inhibition of IMP4 in Enterobacter cloacae isolate 15 assessed as potentiation of meropenem-induced antibacterial activity by measuring meropenem MIC after 24 hrs by broth microdilution method (reference value: 32 ug/ml)
# [21] = target: T1, Metallo-beta-lactamase NDM-4 (Escherichia coli); assay: Inhibition of Escherichia coli NDM4 assessed as potentiation of meropenem-induced antibacterial activity by measuring bacterial growth rate at 64 ug/mL after 24 hrs in presence of ZnCl2 by broth microdilution method relative to control
# [22] = Inhibition of Stenotrophomonas maltophilia NDM1 expressed in Escherichia coli BL21 (DE3) expressing measured after 15 minutes at interval of 60 secs
# [23] = system: Enterobacter cloacae; assay: Inhibition of NDM1 in Enterobacter cloacae isolate 4 assessed as potentiation of meropenem-induced antibacterial activity by measuring meropenem MIC after 24 hrs by broth microdilution assay (reference value: 640 ug/ml)
# [24] = system: Enterobacter cloacae; assay: Inhibition of IMP4 in Enterobacter cloacae isolate 16 assessed as potentiation of meropenem-induced antibacterial activity by measuring meropenem MIC after 24 hrs by broth microdilution method (reference value: 64 ug/ml)
# [25] = target: T1, Metallo-beta-lactamase NDM-4 (Escherichia coli); assay: Inhibition of NDM4 in Escherichia coli isolate 3 assessed as potentiation of meropenem-induced antibacterial activity by measuring meropenem MIC after 24 hrs by broth microdilution assay (reference value: 1280 ug/ml)
# [26] = system: Escherichia coli; assay: Effect on growth of Escherichia coli isolate 1 after 24 hrs by broth microdilution assay; assay type: organism-based
# [27] = Hemolytic activity in sheep RBC at 1000 ug/ml measured after 1 hr relative to control; assay type: ADME, cell-based, Ovis aries, Erythrocyte; conditions: sheep red blood cells (erythrocytes), read-out: Activity
# [28] = target: T1, Metallo-beta-lactamase NDM-4 (Escherichia coli); assay: Inhibition of NDM4 in Escherichia coli isolate 3 assessed as potentiation of meropenem-induced bactericidal activity by measuring bacterial killing in early exponential phase at 64 ug/ml incubated for 24 hrs followed by replating on agar plates for 16 to 18 hrs and measured up to 24 hrs by time kill assay; conditions: TDE = time-dependent effect
# [29] = system: Citrobacter freundii; assay: Inhibition of NDM1 in Citrobacter freundii clinical isolate 7 assessed as potentiation of meropenem-induced antibacterial activity by measuring meropenem MIC after 24 hrs by broth microdilution assay
# [30] = system: Escherichia coli; assay: Inhibition of IMP4 in Escherichia coli isolate 18 assessed as potentiation of meropenem-induced antibacterial activity by measuring meropenem MIC after 24 hrs by broth microdilution method (reference value: 16 ug/ml)
# [31] = system: Escherichia coli; assay: Effect on growth of Escherichia coli isolate 14 after 24 hrs by broth microdilution method; assay type: organism-based
# [32] = system: Escherichia coli ATCC 25922; assay: Inhibition of IMP-4 in Escherichia coli ATCC 25922 assessed as potentiation of meropenem-induced antibacterial activity by measuring zone of inhibition by agar disk diffusion method
# [33] = system: Escherichia coli; assay: Effect on growth of Escherichia coli isolate 3 after 24 hrs by broth microdilution assay; assay type: organism-based
# [34] = system: Escherichia coli; assay: Effect on growth of Escherichia coli isolate 8 after 24 hrs by broth microdilution assay; assay type: organism-based
# [35] = system: Enterobacter cloacae; assay: Effect on growth of Enterobacter cloacae isolate 16 after 24 hrs by broth microdilution method; assay type: organism-based
# [36] = system: Escherichia coli; assay: Inhibition of IMP4 in Escherichia coli isolate 11 assessed as potentiation of meropenem-induced antibacterial activity by measuring meropenem MIC after 24 hrs by broth microdilution method (reference value: 32 ug/ml)
Structure (SMILES),MIC [1],MIC [2],MIC [3],MIC [4],MIC [5],MIC [6],MIC [7],MIC [8],MIC [9],fold change (FC) [10],inhibition zone (IZ) [11],inhibition [12],MIC [13],MIC [14],MIC [15],MIC [16],MIC [17],MIC [18],inhibition [19],MIC [20],also measured
COc1ccc(CN(CCN(Cc2ccc(OC)cc2)Cc2cccc(C(=O)O)n2)Cc2cccc(C(=O)O)n2)cc1,32 µg/mL,0.125 µg/mL,64 µg/mL,32 µg/mL,32 µg/mL,4 µg/mL,32 µg/mL,32 µg/mL,64 µg/mL,41000,21.4 mm,Active,0.5 µg/mL,64 µg/mL,64 µg/mL,64 µg/mL,0.0625 µg/mL,1 µg/mL,Active,0.5 µg/mL,"inhibition [21]: 81%; IC50 [22]: 40 nM; MIC [23]: 0.0625 µg/mL; MIC [24]: 2 µg/mL; MIC [25]: < 0.0312 µg/mL; MIC [26]: 32 µg/mL; hemolysis at 1 h, 1000 ug/ml [27]: 2.94%; inhibition [28]: Tde; MIC [29]: 1 µg/mL; MIC [30]: 2 µg/mL; MIC [31]: 32 µg/mL; inhibition zone (IZ) [32]: 15.9 mm; MIC [33]: 64 µg/mL; MIC [34]: 64 µg/mL; MIC [35]: 32 µg/mL; MIC [36]: 4 µg/mL"
O=C(O)c1cccc(CNCCNCc2cccc(C(=O)O)n2)n1,32 µg/mL,0.25 µg/mL,64 µg/mL,64 µg/mL,32 µg/mL,4 µg/mL,32 µg/mL,32 µg/mL,32 µg/mL,41000,20.2 mm,Active,0.5 µg/mL,64 µg/mL,64 µg/mL,64 µg/mL,0.0625 µg/mL,0.5 µg/mL,Active,0.5 µg/mL,"inhibition [21]: 81%; IC50 [22]: 170 nM; MIC [23]: 0.25 µg/mL; MIC [24]: 2 µg/mL; MIC [25]: < 0.0312 µg/mL; MIC [26]: 32 µg/mL; hemolysis at 1 h, 1000 ug/ml [27]: 0.1%; inhibition [28]: Tde; MIC [29]: 1 µg/mL; MIC [30]: 2 µg/mL; MIC [31]: 32 µg/mL; inhibition zone (IZ) [32]: 18.3 mm; MIC [33]: 32 µg/mL; MIC [34]: 64 µg/mL; MIC [35]: 32 µg/mL; MIC [36]: 4 µg/mL"
